Assay results published in patent US11919856B2, “Compounds” (UCL BUSINESS LTD, priority 2018, dated 2024).

Columns and labels:
Z α1-antitrypsin [1] = molecular target: T1, Z α1-antitrypsin (Homo sapiens, UniProt P01009, E366K/V237A); test: Polymerisation of Z α1-antitrypsin in iPSC-derived hepatocytes (ZZ genotype); format: cell-based; design: a random insertion of the human Z α1-antitrypsin gene; from tissue; host or cells: liver and plasma of Z α1-antitrypsin transgenic mice (human Z transgene); settings: read-out: pIC50, polymerisation of Z α1-antitrypsin (converted)
T1 sequence (P01009 25-418 V237A/E366K): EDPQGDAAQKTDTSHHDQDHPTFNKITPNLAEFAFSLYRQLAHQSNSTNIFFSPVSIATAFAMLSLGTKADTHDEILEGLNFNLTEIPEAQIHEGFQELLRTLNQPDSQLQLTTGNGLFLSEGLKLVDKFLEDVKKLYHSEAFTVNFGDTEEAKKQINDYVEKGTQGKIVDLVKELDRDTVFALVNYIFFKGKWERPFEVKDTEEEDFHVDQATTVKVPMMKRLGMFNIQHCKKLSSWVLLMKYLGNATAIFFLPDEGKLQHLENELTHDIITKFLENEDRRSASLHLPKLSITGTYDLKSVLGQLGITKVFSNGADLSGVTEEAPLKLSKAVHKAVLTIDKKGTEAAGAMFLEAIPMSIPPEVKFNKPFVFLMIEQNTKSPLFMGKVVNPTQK
Description: In order to confirm that the potency and efficacy of Compound 1 in CHO-TET-ON-Z-A1AT was a reasonable estimate of what could be expected in hepatocytes with endogenous levels of expression, the effect of Compound 1 on the secretion and polymerisation of Z α1-antitrypsin was measured in iPSC-derived hepatocytes with the ZZ α1-antitrypsin genotype (Yusa et al. Nature. 2011; 478:391-4).

M α1-antitrypsin = molecular target: T2, M α1-antitrypsin (Homo sapiens, UniProt P01009); test: Stoichiometry of inhibition against chymotrypsin, M α1-antitrypsin; format: biochemical; settings: M α1-antitrypsin pre-incubated with compound
T2 construct: Alpha1-antitrypsin was purified from the plasma of ZZ and MM α1-antitrypsin homozygotes; from tissue; host or cells: plasma of MM homozygotes
T2 sequence (P01009 25-418): as the sequence (P01009 25-418 V237A/E366K) above, with A213V, K342E counted along it
Description: Mutations that interfere with the opening of […] or that perturb its interaction with the N-terminal portion of the reactive centre loop alter the ability of serpins to inhibit target proteases. The stoichiometry of inhibition (SI) was determined for M and Z α1-antitrypsin in discontinuous experiments against a model target protease, chymotrypsin. The pre-incubation of both variants with Compound 1 led to a >98% loss of protease inhibitory activity. […] To investigate whether this activity was consistent with action as a chemical chaperone, M and Z α1-antitrypsin were unfolded in vitro into 6 M guanidine hydrochloride, and rapidly refolded by snap dilution into denaturant-free buffer in the presence or absence of Compound 1.

Z α1-antitrypsin [2] = molecular target: T1, Z α1-antitrypsin; test: Rapid refolding (non-denaturing PAGE); format: biochemical; settings: snap dilution refolding
Description: Refolding of α1-antitrypsin in vitro is not fully reversible, due to loss of material from amorphous aggregation, polymerisation and misfolding. These contributions cannot be readily deconvoluted by bulk spectroscopic methods and therefore refolding was evaluated by non-denaturing PAGE. M and Z α1-antitrypsin at 9.6 mg/ml were denatured in 6 M urea and 15 mM sodium phosphate pH 8.0 for 4 hours at room temperature, and 1.25 μl was snap refolded into 250 μl PBS containing 0-50 μM Compound 1 and a normalised concentration of 5% v/v DMSO. After incubation for 1 hour at room temperature samples were analysed by Coomassie-stained 3-12% w/v acrylamide Bis-Tris Native PAGE gel (Life Technologies).
Mutations that interfere with the opening of […] or that perturb its interaction with the N-terminal portion of the reactive centre loop alter the ability of serpins to inhibit target proteases. The stoichiometry of inhibition (SI) was determined for M and Z α1-antitrypsin in discontinuous experiments against a model target protease, chymotrypsin. The pre-incubation of both variants with Compound 1 led to a >98% loss of protease inhibitory activity. […]

Z α1-antitrypsin [3] = molecular target: T1, Z α1-antitrypsin; test: Intracellular Z α1-antitrypsin polymer formation in CHO-TET-ON-Z-A1AT cells (2C1 antibody); format: cell-based; design: expressed in transfected cells; host or cells: CHO Tet-On (CHO-K1) cells, doxycycline-induced
Description: CHO Tet-On cells that conditionally express Z α1-antitrypsin (Ordóñez A et al. Hepatology 2013; 57(5):2049-60.) were simultaneously treated with 0.5 μg/mL […] and various concentrations of compounds for 48 hours in 6 well plates. Cells without doxycycline or treated with 1% v/v DMSO acted as controls. The cells were lysed and intracellular Z α1-antitrypsin polymer was evaluated by ELISA sandwich with the 2C1 monoclonal antibody (Miranda et al. Hepatology. 2010; 52:1078-88). Newly synthesised α1-antitrypsin was evaluated by growing cells induced to express Z α1-antitrypsin in DMEM without methionine (Met) and cysteine (Cys) for 1 h and then labelling with 1.3 MBq of ^35S-Met/Cys for 15 min. The cells were then rinsed and incubated in chase medium containing an excess of unlabeled Met and Cys for 0, 2 and 6 h. After the chase period, the medium was collected and cells were harvested. α1-Antitrypsin from the medium and cell lysates was immunoprecipitated with a polyclonal α1-antitrypsin antibody or the 2C1 monoclonal antibody that detects polymers by splitting each sample in two equal parts. Radiolabelled proteins were re-suspended in SDS loading buffer, boiled for 5 min, separated by 10% w/v acrylamide SDS-PAGE, and quantified by autoradiography.
CHO-K1 cells were incubated with/without doxycycline to express α1-antitrypsin and with or without the small molecule of interest, fixed with 3.7% v/v formaldehyde in PBS for 15 min, permeabilised with 0.1% v/v Triton X-100 in PBS and then blocked with 10% v/v FBS in PBS for 30 min. Cells were labelled with a rabbit polyclonal antibody to total α1-antitrypsin or the 2C1 monoclonal antibody that detects polymers followed by Texan red conjugated anti-rabbit or FITC labelled anti-mouse secondary antibodies respectively. Cells were imaged using an Axiovert 200 widefield fluorescence microscope (Carl Zeiss Microimaging Inc., Thornwood, NY).
Its ability to block Z α1-antitrypsin polymerisation in the ER during folding was assessed by adding Compound 1 to CHO-TET-ON-Z-A1AT cells (Ordóñez et al. Hepatology. 2013; 57(5):2049-60) with simultaneous induction of Z α1-antitrypsin expression using doxycycline. […] To investigate whether in addition to blocking polymerisation, Compound 1 was also able to increase secretion of Z α1-antitrypsin, Z α1-antitrypsin expression was induced in CHO-TET-ON-Z-A1AT cells, Compound 1 was added, and the total Z α1-antitrypsin in the supernatant was measured by immunoassay after 6 hours.

[4] = In vitro clearance in cryopreserved hepatocytes, human; format: in vitro ADME
α1-antitrypsin = test: End-point constant-temperature heat-induced polymerisation assay (non-denaturing PAGE); format: biochemical, human; settings: constant-temperature experiment, versus absence
Description: Resistance to heat-induced polymerisation was also determined using an end-point constant-temperature assay. Plasma purified M and Z α1-antitrypsin were diluted to 0.2 mg/ml in PBS with 5% v/v glycerol, incubated with 10 μM Compound 1 (or with DMSO alone) for 2 hours and then heated in 20 μl aliquots for a further 4 hours in a thermal cycler with a 48-65° C. gradient applied across the plate. Samples were analysed on a 3-12% w/v acrylamide Bis-Tris Native-PAGE gel (Life Technologies).
Polymerisation of α1-antitrypsin occurs from a transient intermediate state known as M*, that is readily populated by the Z variant. One of the hallmarks of M* is its recognition by environment-sensitive fluorescent reporter dyes. Thermal shift assays that make use of the dye SYPRO Orange report the stability of the protein native state against heat-induced unfolding. […] Native state stability can also be probed by equilibrium unfolding using chemical denaturants, where a peak in bis-ANS fluorescence corresponds with a maximally populated unfolding intermediate.

CCC[C@@H](NC(=O)c1cccc2c1CC(=O)N2)[C@@H](O)c1cccc(F)c1C [Compound 1, N-[(1S,2R)-1-(3-fluoro-2-methylphenyl)-1-hydroxypentan-2-yl]-2-oxo-2,3-dihydro-1H-indole-4-carboxamide]
IC50 (Z α1-antitrypsin [1]): 398 nM
loss of protease inhibitory activity (M α1-antitrypsin): > 98%
anodally-shifted migration (misfolded byproduct) of refolded Z variant (Z α1-antitrypsin [2]): corrected at stoichiometric concentrations and above
polymer formation in Z α1-antitrypsin expressing cells (Z α1-antitrypsin [3]; 10 μM, CHO-TET-ON-Z-A1AT cells, tunicamycin experiment): completely abrogated
IC50 (Z α1-antitrypsin [3]; CHO-TET-ON-Z-A1AT cells, doxycycline induction, 2C1 antibody, read-out: pIC50, intracellular formation of Z α1-antitrypsin polymers (converted)): 501 nM
intracellular formation of Z α1-antitrypsin polymers (Z α1-antitrypsin [3]; CHO-TET-ON-Z-A1AT cells, in comparison with controls): completely blocked
EC50 (Z α1-antitrypsin [3]; read-out: cellular activity at blocking Z α1-antitrypsin polymerisation (pEC50) (converted)): 501 nM
in vitro clearance in cryopreserved hepatocytes [4]: 0.3 ± 0.05 mL/min/g
temperature at which oligomers are generated (α1-antitrypsin): higher temperatures
